From PMC12469269, “Investigating SMR Peptide Interactions with Breast Cancer-Associated Proteins” (International Journal of Molecular Sciences, 2025)

How the values were obtained:
Jurkat T cells = assay: exNef secretion, Mortalin scanning peptides (Figure 5A), Jurkat T cells; assay type: cell-based; settings: for Jurkat GFP (exNef secretion): 50 ng / 200 μL peptide, 250 ng Nef-GFP plasmid, GFP fluorescence in media, SMRmut = 100, mean of three independent experiments
Method: To determine whether Mortalin-derived peptides can inhibit the secretion of extracellular Nef (exNef), Jurkat T cells were co-transfected with wild-type Nef-GFP and various scanning peptides derived from the substrate-binding domain of Mortalin (#56–#67). SMRwt and SMRmut peptides were included as positive and negative controls, respectively. After 48 h of incubation, GFP fluorescence in the culture media was measured as a proxy for exNef secretion.
(§1) Figure 5 Effects of Mortalin-derived peptides on inhibition of exNef and tumor exosome secretion. (A) Jurkat T cells were co-transfected with 250 ng of wild-type Nef-GFP plasmid and 50 ng of Mortalin-derived scanning peptides (#56–#67), including SMRwt and SMRmut as positive and negative controls. After 48 h, GFP fluorescence in culture media was measured to assess exNef secretion. Data represent mean ± SD from three independent experiments. Statistical significance was determined using a two-sample t-test assuming equal variances. (B) MDA-MB-231 cells were transfected with 50 ng of Mortalin-derived scanning peptides (#56–#67), including SMRwt and SMRmut controls. Cells were labeled with N-Rh-PE and incubated for 48 h. N-Rh-PE fluorescence in culture media was measured to assess exosome secretion. Data represent mean ± SD from three independent experiments. Statistical significance was determined using a two-sample t-test assuming equal variances. TEXT PRINTED IN THE PICTURE: (A) #56: Jurkat GFP (%): 117.84 (50 ng / 200 μL) | (A) #57: Jurkat GFP (%): 96.69 (50 ng / 200 μL) | (A) #58: Jurkat GFP (%): 91.89 (50 ng / 200 μL) | (A) #59: Jurkat GFP (%): 95.49 (50 ng / 200 μL) | (A) #60: Jurkat GFP (%): 98.25 (50 ng / 200 μL) | (A) #61: Jurkat GFP (%): 0.65 (50 ng / 200 μL) | (A) #62: Jurkat GFP (%): 0.51 (50 ng / 200 μL) | (A) #63: Jurkat GFP (%): 98.02 (50 ng / 200 μL) | (A) #64: Jurkat GFP (%): 95.37 (50 ng / 200 μL) | (A) #65: Jurkat GFP (%): 96.34 (50 ng / 200 μL) | (A) #66: Jurkat GFP (%): 92.28 (50 ng / 200 μL) | (A) #67: Jurkat GFP (%): 99.56 (50 ng / 200 μL) | (A) SMRwt: Jurkat GFP (%): 0.51 (50 ng / 200 μL) | (A) SMRmut: Jurkat GFP (%): 100 (50 ng / 200 μL) | (B) #56: MDA-MB-231 N-Rh-PE (%): 66.31 (50 ng / 200 μL) | (B) #57: MDA-MB-231 N-Rh-PE (%): 79.73 (50 ng / 200 μL) | (B) #58: MDA-MB-231 N-Rh-PE (%): 68.11 (50 ng / 200 μL) | (B) #59: MDA-MB-231 N-Rh-PE (%): 67.81 (50 ng / 200 μL) | (B) #60: MDA-MB-231 N-Rh-PE (%): 72.32 (50 ng / 200 μL) | (B) #61: MDA-MB-231 N-Rh-PE (%): 7.53 (50 ng / 200 μL) | (B) #62: MDA-MB-231 N-Rh-PE (%): 5.36 (50 ng / 200 μL) | (B) #63: MDA-MB-231 N-Rh-PE (%): 75.39 (50 ng / 200 μL) | (B) #64: MDA-MB-231 N-Rh-PE (%): 73.49 (50 ng / 200 μL) | (B) #65: MDA-MB-231 N-Rh-PE (%): 81.65 (50 ng / 200 μL) | (B) #66: MDA-MB-231 N-Rh-PE (%): 81.79 (50 ng / 200 μL) | (B) #67: MDA-MB-231 N-Rh-PE (%): 89.82 (50 ng / 200 μL) | (B) SMRwt: MDA-MB-231 N-Rh-PE (%): 6.11 (50 ng / 200 μL) | (B) SMRmut: MDA-MB-231 N-Rh-PE (%): 100 (50 ng / 200 μL)
To identify peptide sequences within Mortalin that modulate extracellular vesicle (EV) secretion, a panel of scanning peptides was synthesized and tested in Jurkat T cells. The peptides, listed in Table 1, were custom-synthesized with an average purity of 75% and used in transfection assays to evaluate their impact on EV release. Jurkat T cells (3 × 10^5) were co-transfected with 50 ng of individual Mortalin peptides […] 250 ng of wild-type Nef-GFP plasmid using Chariot™ transfection reagent. Transfection efficiency was confirmed by fluorescence microscopy after 48 h. EV secretion was assessed by measuring GFP fluorescence in the culture media, and statistical analysis was performed using unpaired two-factor t-tests (p < 0.05). Panel of Mortalin scanning peptides developed and tested for their effect EV secretion and Table S2. Mortalin Scanning Peptides Used in Transfection Assays, see the Supplementary Information. […]

MDA-MB-231 cells [1] = assay: Tumor exosome secretion, Mortalin scanning peptides (Figure 5B), MDA-MB-231; assay type: cell-based, human; settings: 48 h; for MDA-MB-231 N-Rh-PE (exosome secretion): 50 ng / 200 μL peptide, transfected, N-Rh-PE fluorescence in media, SMRmut = 100, mean of three independent experiments
Method: as §1
To assess the effect of Mortalin-derived peptides on tumor exosome secretion, MDA-MB-231 breast cancer cells were transfected with the same panel of scanning peptides and labeled with N-Rh-PE to track exosome release. Following incubation, N-Rh-PE fluorescence in the culture media was measured as a proxy for extracellular exosome levels. SMRwt and SMRmut peptides were again used as controls. […] Statistical analysis confirmed significant differences: SMRmut vs. #61 (p < 7.20 × 10^−7), SMRmut vs. #62 (p < 5.70 × 10^−7), and SMRmut vs. SMRwt (p < 5.96 × 10^−7).

MDA-MB-231 cells [2] = assay: as above; assay type: cell-based, human; settings: MDA-MB-231 exosome experiment

For “^66Ala-Gly-Phe-Pro-Val^70 [SMRmut, 5-mer negative control, Val66 changed to Ala]”, the “Jurkat GFP (exNef secretion)” value (Jurkat T cells; 48 h) was 100% and the “MDA-MB-231 N-Rh-PE (exosome secretion)” value (MDA-MB-231 cells [1]) was 100%.

In the case of “DQLPADECNKLKEEISKMRE [#61, Mortalin scanning peptide 61]”, the “Jurkat GFP (exNef secretion)” value (Jurkat T cells; 48 h) was 0.65%, the “cluster formation / potential peptide aggregation” value (Jurkat T cells; Jurkat exNef experiment) was “formed small clusters” and the “p, SMRmut vs. peptide, exNef secretion” value (Jurkat T cells; two-sample t-test assuming equal variances, 50 ng peptide, 48 h) was < 1.47 × 10^−13. The “MDA-MB-231 N-Rh-PE (exosome secretion)” value (MDA-MB-231 cells [1]) was 7.53%, the “p, SMRmut vs. peptide, exosome secretion” value (MDA-MB-231 cells [1]; two-sample t-test assuming equal variances, 50 ng peptide) was < 7.20 × 10^−7 and the cluster formation (MDA-MB-231 cells [2]) was “formed small clusters”.
